From patent US20070276013A1, “Active Substance Combinations with Insecticidal Properties” (priority 2004, published 2007)
Values joined by “and” are separate entries in the source; they are usually repeats but may differ in a detail not shown here. Equal entries are not always repeated.

How the values were obtained:
Format in all cases: in vivo
[1] = tested on: Plutella xylostella (sensitive strain); experiment: Plutella xylostella test (sensitive strain), treated cabbage leaves; conditions: 144 h, after 6 d, normal sensitivity
Source text: (§1) The action to be expected for a given combination of two active substance can be calculated as follows according to S. R. Colby, Weeds 15 (1967), 20-22:
(§2) If • X stands for the mortality rate expressed in % of the untreated control upon the use of active substance A at an application amount of m g/ha or in a concentration of m ppm, • Y stands for the mortality rate expressed in % of the untreated control upon the use of active substance B at an application amount of n g/ha or in a concentration of n ppm, and • E stands for the mortality rate expressed in % of the untreated control upon the use of active substances A and B at an application amount of m and n g/ha or in a concentration of m and n ppm, then [formula]
(§3) If the actual insecticidal mortality rate is greater than calculated, then the combination is […] in its mortality; that is to say, a synergistic effect is present. In this case the mortality rate that is actually observed must be greater than the value for the expected mortality rate (E) calculated from the formula presented above.
(§4) To produce a suitable active substance preparation, one mixes 1 part by weight of active substance with the listed amount of solvent and emulsifier and dilutes the concentrate with water containing an emulsifier at the desired concentration.
(§5) Cabbage leaves (Brassica oleracea) are treated by immersion in the active substance preparation of the desired concentration and filled with cabbage moth larvae (Plutella xylostella) for as long as the leaves are still damp.
(§6) After […] the mortality in % is determined. In the process, 100% means that all larvae were killed; 0% means that no larvae were killed. One determines the determined mortality rate according to the Colby formula (see page 1).

[2] = tested on: Plutella xylostella (resistant strain); experiment: Plutella xylostella test (resistant strain), treated cabbage leaves; conditions: 144 h, after 6 d
Source text: as §1, §2, §3, §4, §5, §6

[3] = tested on: Heliothis armigera; experiment: Heliothis armigera test, treated cotton leaves with larvae; conditions: Helicoverpa armigera, 144 h, after 6 d
Source text: as §1, §2, §3, §4
Cotton leaves (Gossypium hirsutum) are treated by immersion in the active substance preparation of the desired concentration and filled with cotton bollworm larvae (Heliothis armigera) for as long as the leaves are still damp.
as §6

[4] = tested on: Myzus persicae; experiment: Myzus persicae test, immersion of infested cabbage leaves
Source text: as §1, §2, §3, §4
Cabbage leaves (Brassica oleracea) that are severely afflicted by the green peach aphid (Myzus persicae) are treated by immersion in the active substance preparation of the desired concentration.
After […] the mortality in % is determined. In the process, 100% means that all green peach aphids were killed; 0% means that no green peach aphids were killed. One calculates the determined mortality rate according to the Colby formula (see page 1).

[5] = tested on: Phaedon cochleariae larvae; experiment: Phaedon cochleariae larvae test, treated cabbage leaves; conditions: 144 h, after 6 d
Source text: as §1, §2, §3, §4
Cabbage leaves (Brassica oleracea) are treated by immersion in the active substance preparation of the desired concentration and filled with mustard beetle larvae (Phaedon cochleariae) for as long as the leaves are still damp.
After […] the mortality in % is determined. In the process, 100% means that all beetle larvae were killed; 0% means that no beetle larvae were killed. One determines the determined mortality rate according to the Colby formula (see page 1).

[6] = tested on: Aphis gossypii; experiment: Aphis gossypii test, immersion of infested cotton leaves; conditions: 24 h, after 1 d
Source text: as §1, §2
as §3, with “above. […]” for “above.”
After […] the mortality in % is determined. […] One calculates the determined mortality rate according to the Colby formula (see page 1).

[7] = tested on: Spodoptera frugiperda; experiment: Spodoptera frugiperda test, treated cabbage leaves; conditions: 72 h, after 3 d
Source text: as §1, §2
as §3, with “above. […]” for “above.”
(§7) After […] the mortality in % is determined. […] One determines the determined mortality rate according to the Colby formula (see page 1).

[8] = tested on: Spodoptera exigua; experiment: Spodoptera exigua test, treated cabbage leaves; conditions: 144 h, after 6 d
Source text: as §1, §2
as §3, with “above. […]” for “above.”
as §7

For `CC1(C)C(/C=C(\Cl)C(F)(F)F)C1C(=O)OC(C#N)c1cccc(Oc2ccccc2)c1` (stereo not drawn) [Lambda-cyhalothrin], the mortality at 0.024 ppm [1] was 40%, the mortality at 0.6 ppm [2] was 40% and the mortality at 0.12 ppm [3] was 55%.
`Cc1c(COC(=O)C2C(/C=C(\Cl)C(F)(F)F)C2(C)C)cccc1-c1ccccc1` (stereo not drawn) [Bifenthrin] showed a mortality at 0.16 ppm ([4]; Myzus persicae, 144 h, read-out: Mortality in % after 6 d, 0.16 ppm, after 6 d) of 0% and a mortality at 0.8 ppm ([5]; 0.8 ppm) of 35%.
For `CC1(C)C(C=C(Cl)Cl)C1C(=O)OC(C#N)c1cccc(Oc2ccccc2)c1` (stereo not drawn) [Alpha-cypermethrin, Alpha-Cypermethrin], the mortality at 0.16 ppm [5] was 5%.
With `N#C/N=C1\SCCN1Cc1ccc(Cl)nc1` [Thiacloprid, thiacloprid] the “Mortality in % after 6 d” value ([4]; 0.8 ppm, after 6 d) was 0% and 10%, the mortality at 0.6 ppm ([4]; Myzus persicae, 144 h, read-out: Mortality in % after 6 d, 0.6 ppm, after 6 d) was 35% and the mortality at 0.6 ppm ([1]; 0.6 ppm) was 0%. For the same compound, the mortality at 0.6 ppm ([6]; 0.6 ppm) was 35%, the mortality at 3 ppm ([5]; 3 ppm) was 15% and the mortality at 20 ppm ([5]; 20 ppm) was 40%. It also gave a mortality at 0.6 ppm ([7]; 0.6 ppm) of 0%, a mortality at 3 ppm ([2]; 3 ppm) of 0% and a mortality at 15 ppm ([2]; 15 ppm) of 10%. For the same compound, the mortality at 0.12 ppm [3] was 0%, the mortality at 0.6 ppm ([3]; 0.6 ppm) was 0% and the mortality at 15 ppm ([8]; 15 ppm) was 0%.
For `CC1(C)C(C=C(Cl)Cl)C1C(=O)OC(C#N)c1ccc(F)c(Oc2ccccc2)c1` (stereo not drawn) [Beta-cyfluthrin, Betacyfluthrin], the mortality at 0.12 ppm ([4]; Myzus persicae, 144 h, read-out: Mortality in % after 6 d, 0.12 ppm, after 6 d) was 0%, the mortality at 0.024 ppm [1] was 10% and the mortality at 0.12 ppm ([6]; 0.12 ppm) was 5%. It also gave a mortality at 0.12 ppm ([5]; 0.12 ppm) of 15%, a mortality at 0.12 ppm ([7]; 0.12 ppm) of 5% and a mortality at 0.6 ppm [2] of 35%. It also gave a mortality at 0.12 ppm [3] of 0% and a mortality at 0.6 ppm ([8]; 0.6 ppm) of 25%.
Work on `CC1(C)[C@H](C(=O)O[C@H](C#N)c2cccc(Oc3ccccc3)c2)[C@@H]1C=C(Br)Br` [Deltamethrin] yielded a mortality at 0.16 ppm [5] of 30%.
